Biological target: T1, Human CYP8B1 (Homo sapiens, UniProt Q9UNU6)
T1 construct: tissue Xenotech; host or cells: human liver microsomes
T1 sequence (Q9UNU6 1-501): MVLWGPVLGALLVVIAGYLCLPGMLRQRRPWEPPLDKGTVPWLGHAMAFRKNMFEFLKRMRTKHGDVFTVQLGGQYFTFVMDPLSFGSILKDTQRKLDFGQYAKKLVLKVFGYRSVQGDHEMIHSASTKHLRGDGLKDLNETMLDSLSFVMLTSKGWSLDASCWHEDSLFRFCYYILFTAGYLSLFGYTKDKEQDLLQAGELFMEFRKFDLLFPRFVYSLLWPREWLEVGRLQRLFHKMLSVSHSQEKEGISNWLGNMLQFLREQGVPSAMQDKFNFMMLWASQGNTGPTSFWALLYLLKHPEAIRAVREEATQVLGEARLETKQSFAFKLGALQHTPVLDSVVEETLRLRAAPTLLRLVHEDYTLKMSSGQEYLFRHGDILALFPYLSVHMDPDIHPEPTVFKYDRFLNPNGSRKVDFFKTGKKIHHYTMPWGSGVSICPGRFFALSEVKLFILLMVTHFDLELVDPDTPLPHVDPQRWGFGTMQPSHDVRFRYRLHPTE
Experiment: Human Cyp8B1 Liver Microsome Assay
Type: biochemical
Conditions: human liver microsomes; substrate 7α-hydroxy-4-cholesten-3-one, NADPH; 30 min pre-incubation, 45 min reaction; RapidFire MS readout
Summary of the method: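 Human liver microsomes (65 μg/ml, 0.1 M phosphate pH 7.4) preincubated 30 min at room temperature with inhibitor (1.25% DMSO final), then reacted 45 min with 7α-hydroxy-4-cholesten-3-one and NADPH. 7α,12α-dihydroxy product quantified by RapidFire ESI+ MRM against d7 internal standard; IC50 from four-parameter logistic fit.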

For `C[C@@H]1CN(c2ccnc3cc(-n4cncn4)ccc23)CC[C@@H]1C(=O)N1CCn2c(nnc2C(F)(F)F)C1` [Example 74, ((3S,4S)-1-(7-(1H-1,2,4-triazol-1-yl)quinolin-4-yl)-3-methylpiperidin-4-yl)(3-(trifluoromethyl)-5,6-dihydro-[1,2,4]triazolo[4,3-a]pyrazin-7(8H)-yl)methanone], which IC50 is on record?
Its IC50 is 41.7 nM.

For `Cc1coc(-c2ccc3c(N4CC[C@H](C(=O)N5CCn6c(nnc6C(F)(F)F)C5)[C@H](C)C4)ccnc3c2)n1` [Example 75, ((3S,4S)-3-methyl-1-(7-(4-methyloxazol-2-yl)quinolin-4-yl)piperidin-4-yl)(3-(trifluoromethyl)-5,6-dihydro-[1,2,4]triazolo[4,3-a]pyrazin-7(8H)-yl)methanone], which IC50 is on record?
The IC50 was 1.4 nM.

`C[C@@H]1CN(c2c(Cl)cnc3cc(-c4ncco4)ccc23)CC[C@@H]1C(=O)N1CCn2c(nnc2C(F)(F)F)C1` [Example 76, ((3S,4S)-1-(3-chloro-7-(oxazol-2-yl)quinolin-4-yl)-3-methylpiperidin-4-yl)(3-(trifluoromethyl)-5,6-dihydro-[1,2,4]triazolo[4,3-a]pyrazin-7(8H)-yl)methanone] was tested. Which IC50 did it give?
Its IC50 is 0.7 nM.

`C[C@@H]1CN(c2c(Cl)cnc3cc(-c4ncco4)ccc23)CC[C@@H]1C(=O)N1CCc2c(noc2C(F)(F)F)C1` [Example 77, ((3S,4S)-1-(3-chloro-7-(oxazol-2-yl)quinolin-4-yl)-3-methylpiperidin-4-yl)(3-(trifluoromethyl)-4,5-dihydroisoxazolo [3,4-c]pyridin-6(7H)-yl)methanone] was tested. Which IC50 did it give?
The IC50 was 0.2 nM.

`C[C@@H]1CN(c2c(Cl)cnc3cc(-c4ncco4)ccc23)CC[C@@H]1C(=O)N1CCn2c(nnc2C2CC2)C1` [Example 78, ((3S,4S)-1-(3-chloro-7-(oxazol-2-yl)quinolin-4-yl)-3-methylpiperidin-4-yl) (3-cyclopropyl-5,6-dihydro-[1,2,4]triazolo[4,3-a]pyrazin-7(8H)-yl)methanone] was tested. Which IC50 did it give?
The IC50 was 0.5 nM.

For `C[C@@H]1CN(c2ccnc3cc(-c4ccncc4)ccc23)CC[C@@H]1C(=O)N1CCn2c(nnc2C(F)(F)F)C1` [Example 79, ((3S,4S)-3-methyl-1-(7-(pyridin-4-yl)quinolin-4-yl)piperidin-4-yl)(3-(trifluoromethyl)-5,6-dihydro-[1,2,4]triazolo[4,3-a]pyrazin-7(8H)-yl)methanone], which IC50 is on record?
The IC50 was 0.7 nM.

For `C[C@@H]1CN(c2ccnc3cc(-c4ccccc4)ccc23)CC[C@@H]1C(=O)N1CCn2c(nnc2C(F)(F)F)C1` [Example 80], which IC50 is on record?
The IC50 was 0.4 nM.

From US10414775B2 (Merck Sharp & Dohme Corp., priority 2016, dated 2019)
